Source: patent US20200375996A1, “METHOD OF TREATING NEURODEGENERATIVE DISORDERS BY RESCUING ALPHA-SYNUCLEIN TOXICITY” (D.E. Shaw Research, LLC, priority 2015, published 2020)

What was measured:
[1] = tested on: α-synuclein-expressing yeast; test: α-synuclein toxicity rescue in yeast (growth, OD600); type: cell-based; settings: for rescue of aSyn toxicity in yeast (in words): FIGS. 8A-8B
Procedure: Yeast Strains and culturing: Yeast strains expressing alpha-synuclein have been described in Cooper at. al, 2006. (Cooper A A, et al. Alpha-synuclein blocks ER-Golgi traffic and Rab1 rescues neuron loss in Parkinson's models. Science. 2006 Jul. 21; 313:324) Strains express multiple copies of alpha-synculein for galactose-inducible expression. […] Yeast were cultured in complete synthetic media (CSM) and an appropriate dropout (lacking histidine or uracil) to maintain plasmids if required. For galactose-induction experiments, overnight cultures were grown in CSM/2% glucose to saturation and diluted 1:20 into CSM/2% raffinose for ˜2 generations. Cultures were then diluted into CSM/2% galactose at an optimum OD600 for the experiment (see ‘Growth assays’).
Yeast Growth assays: Starting cultures for all dose-response assays were based on strains initially constructed in the lab to maintain homogeneity across experiments. All growth assays were carried out in 384 well format. Source plates were assembled in 96 well plates using multichannel pipettes to dilute rows in 1.6-fold serial dilutions of CSMGal. To these dilution series containing 2× final concentration of compound, 2×OD600 culture (in CSMGal) was dispensed with a multichannel pipette to achieve a final drug/culture mix with the desired OD600 and drug concentration. For WT yeast, the final starting OD600 was 0.01. For α-syn, the final starting OD600 was 0.02. Drug concentration ranges varied depending on efficacy, growth inhibition, and solubility in media. A Tecan EvoFreedom liquid handling robot was then used to transfer culture from 96 to 384 well format with each well being represented four times. Final well volume was 35 μL. Plates were then incubated in humidified containers at 30° C. for either 24 or 40 hours. Plates were then read with a Tecan Saphire plate reader at OD600.
Raw OD600 values were transformed to “Relative Growth” in WT cells or “% Maximum Rescue” in α-syn experiments. In WT cells, the well background was subtracted and all values were then normalized to 100% for the untreated condition. In α-syn rescue experiments, the well background was subtracted and the maximum rescue in the particular experiment was normalized to 100%.

Carboxypeptidase Y (CPY) = test: Western blot of Carboxypeptidase Y (CPY) trafficking; type: cell-based, yeast
Procedure: (§1) Protein analysis was performed in NoTox and HiTox strains with the compound treatment at indicated concentrations. Log phase CSM/2% raffinose cultures were induced with 2% galactose for 5 hours with DMSO or the compounds. Cultures were normalized to cell density and cell pellets prepared for SDS-PAGE. Cell pellets were boiled in SDS-loading dye for 15′, centrifuged, and resolved by 4-12% SDS-PAGE. CPY western blots were performed using culture conditions as described above. An anti-Cpy antibody (Invitrogen, A6428) was used at 1:5,000. Post-ER:ER ratios were quantitated using an IRDye800 secondary antibody (Li-Cor Odyssey, Rockland Immunochemicals) and scanned with the Li-Cor Odyssey imaging system. Significance was determined using a one-way ANOVA and Tukey's test of significance. From the same gel, total protein was detected by coomassie staining. Both blots and coomassie-stained gels were scanned using the Li-Cor Odyssey imaging system and quantitated. Significance was determined using a one-way ANOVA with Tukey's test of significance.

[2] = tested on: K63 linkages in iPS derived human neurons; test: K63-Ub linkages in human iPS derived neuronal cultures (immunoblot); type: cell-based
Procedure: Human HEK-293 or neuronal cells treated with the appropriate compounds, were washed twice with ice cold PBS and then 0.5 ml of Lysis buffer was added and cells were scraped off the 10 cm dish (1 ml for 15 cm).
Lysis buffer is 50 mM Tris/HCl pH 7.5, 1 mM EGTA, 1 mM EDTA, 0.5 or 1% (v/v) NP-40, 1 mM sodium orthovanadate, 50 mM NaF, 5 mM sodium pyrophosphate, 0.27 M sucrose, 10 mM sodium 2-glycerophosphate, 0.2 mM phenylmethylsulphonyl fluoride, 1 mM benzamidine, plus 100 mM iodoacetamide added fresh prior to lysis (weight powder, don't use a frozen stock solution) to inactivate deubiquitylase activities and add also pepstatin/aprotinin to inhibit proteases. Cell extracts were sonicated twice for 15 seconds each time and clarified by centrifugation at 14000 g for 15 min at 4° C. Supernatants were collected and filtered using a 0.45 uM MiniSart/Syringe. Next, protein concentrations were determined by Bradford procedure.
The avidity based K63 linkage sensor protein was based on Sims et. al, 2012. Briefly, avidity based K63 sensor Halo-fusion protein was expressed in an E. coli expression vector and covalently bound to Halo-tag beads [Magne® HaloTag® Beads, 20% Slurry; Cat #G7281]. […] After incubation, the beads were washed three times with 1 ml of Lysis buffer containing 500 mM NaCl and once with 0.5 ml of 10 mM Tris/HCl pH 8.0. […] The eluate is heated at 75° C. for 5 min and analysed by immuno-blotting using an anti-K63 linkage specific antibody (http://www.abcam.com/ubiquitin-linkage-specific-k63-epr8590-448-antibody-ab179434.html).
Pure neuronal cultures derived from human iPS cells were treated with DMSO, DES-2877, DES-4114 and #32 at 5 μM for 12 hours. […] Ubiquitylation site identification by mass spectrometry was performed as described Kim et al., (Systematic and quantitative assessment of the ubiquitin-modified proteome. Mol Cell. 2011; 44:325-340). and Sarraf et al., (Landscape of the PARKIN-dependent ubiquitylome in response to mitochondrial depolarization. Nature. 2013; 496:372-376).

Sna3-GFP [3] = test: Sna3-GFP trafficking to the vacuole (Western blot, GFP cleavage); type: cell-based, yeast; settings: for ratio of Sna3-GFP to free GFP: 10 μM, FIGS. 16A-16F, within the compound series; for Sna3-GFP trafficking to the vacuole (in words): galactose 5 hours, FIGS. 15B-15F
Procedure: Log phase CsmRaf cultures of WT tagged Sna3-GFP cells were shifted to galactose for 5 hours in the presence or absence of the compounds. Cell pellets were lysed in SDS-loading dye and Sna3-GFP cleavage monitored by Western blotting with an anti-GFP antibody. Log phase CsmRaf cultures of WT or α-syn yeast were shifted to galactose for 5 hours in the presence or absence of the compounds at which point they were then prepared for Western blot analysis. FIGS. 15B-15F show Western blot analyses of Sna3-GFP for various compounds.
Ratio of the intact Sna3-GFP to cleaved GFP was calculated for each of the conditions as a readout for efficiency of trafficking of the Sna3-GFP molecule to the vacuole. Polyubiquitination of Sna3-GFP was used as a readout for the intermediate step at the multivesicular body. Image Studio software was used to determine the intensities of the bands, based on linear interpolation of the mean signal intensities from each of the areas of interest and ratios were subsequently calculated in Microsoft Excel and plotted according to the compound series as shown in FIGS. 16A-16F. In the ‘32’ series of analogs, the ratio of Sna3-GFP to free GFP varied among the analogs, with DES-2179 having the lowest ratio of Sna3-GFP to free GFP and DES-2866 having the highest ratio (FIG. 16A). In the ‘91’ series of analogs, the ratio of Sna3-GFP to free GFP varied among the analogs, but less so than for the ‘32’ series (FIG. 16B). In the ‘4117’ series of analogs, the ratio of Sna3-GFP to free GFP was lowest for DES-5212 (FIG. 16C). […] In the ‘28’ series of analogs, DES-2817 had the lowest ratio of Sna3-GFP to free GFP (FIG. 16F). The other compounds in the ‘28’ series had ratios between ˜0.5 and 1.0 (FIG. 16F). In the ‘37’ series of analogs, the ratio of Sna3-GFP to free GFP was greatest for DES-2926 (FIG. 16F).

Rsp5 = target: T1, Rsp5 (Saccharomyces cerevisiae, UniProt P39940); test: Back-Scattering Interferometry (BSI) binding to recombinant Rsp5; settings: for Kd: 100 nM Rsp5, one-site saturation binding model, read-out: dissociation constant (Kd) for binding to Rsp5
T1 sequence (P39940 431-809 limits assumed): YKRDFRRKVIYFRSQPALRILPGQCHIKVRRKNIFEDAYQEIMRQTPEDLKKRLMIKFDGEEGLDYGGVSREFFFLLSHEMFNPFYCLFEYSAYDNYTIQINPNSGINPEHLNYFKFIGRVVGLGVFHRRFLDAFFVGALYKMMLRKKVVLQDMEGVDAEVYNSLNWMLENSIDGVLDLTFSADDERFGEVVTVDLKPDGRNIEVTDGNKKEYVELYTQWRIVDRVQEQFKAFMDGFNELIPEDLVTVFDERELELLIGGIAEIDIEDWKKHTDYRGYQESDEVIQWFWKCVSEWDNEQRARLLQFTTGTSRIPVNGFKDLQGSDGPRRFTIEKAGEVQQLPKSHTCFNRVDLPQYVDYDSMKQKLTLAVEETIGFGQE
Procedure: Sample Preparation of Rsp5 Target: Rsp5 was supplied in 15 μL aliquots of 100 μM (25 mM HEPES pH 7.5, 200 mM NaCl, 5 mM DTT) by St. Jude Research Hospital (Memphis, Tenn.) and was stored at −80° C. Immediately prior to assays fresh aliquots were thawed and diluted in 25 mM HEPES, pH 7.5, 200 mM NaCl, 1 mM DTT, 0.005% pluronic acid and 1% DMSO. The final Rsp5 concentration in the binding assay was 100 nM.
Sample Preparation of compounds (ligands): The compounds were received as solids and reconstituted to either 40 or 20 mM in 100% DMSO and stored at −80° C. in single use aliquots. The final concentration of each ligand in an assay was 50 μM with a 2× serial dilution to create a 12-point curve.
The assay buffer was 25 mM HEPES, pH 7.5, 200 mM NaCl, 1 mM DTT, 0.005% pluronic acid, 1% DMSO. The assay was run in Eppendorf 96-well PCR microplates. 55 μL of either Rsp5 or buffer (as control) were added to a each well. To these wells were added 55 μL of the compound dilution. A reference channel containing only buffer was setup as well for thermal compensation during assay measurements. The plates were heat sealed with foil and the assay plates were allowed to incubate at room temperature for 2 hours. Wells were pierced individually prior to sample injection and measurement of BSI signal (each well analyzed in duplicate). The assays were run using a glass microfluidic chip with a proprietary surface treatment on TruBind™ 100 system.
The BSI signal was expressed as the magnitude of the spatial shift of the fringe pattern on a CMOS camera, measured in milliradians. The control signal was subtracted from assay signal for each compound dilution point. The resulting values were re-zeroed and analyzed with the GraphPad Prism program. The dissociation constant (Kd) was derived from non-linear least-squares fitting of the data using the one-site saturation binding model. The goodness of fit was judged by the calculated R^2 value. The difference and control curves for at least two successful assays were averaged. The resulting average difference curve was used to calculate the reported Kd value for each compound.

Sna3-GFP [4] = test: Immunoblot analysis of Sna3-GFP polyubiquitination in WT and α-syn cells; type: cell-based, yeast; settings: FIG. 11B
Procedure: as §1
In WT Sna3-GFP cells, log phase CSMRaf cultures were shifted to galactose for 5 hours in the presence or absence of the compounds. Cell pellets were lysed in SDS-loading dye and Sna3-GFP cleavage monitored by Western blotting with an anti-GFP antibody. […]

[5] = tested on: aSyn-expressing yeast cells; test: Morphological analysis of aSyn-expressing yeast cells; type: cell-based; settings: 10 uM, galactose induction five hours, FIG. 10
Procedure: Raffinose cultures of α-syn expressing yeast cells were grown up to the logarithmic phase in raffinose. Cultures were induced with galactose for five hours in the presence or absence of the indication concentration of the compounds. In the present example, the identified compounds were present at a concentration of 10 uM. Cells were centrifuged, media discarded, and then fixed with 4% paraformaldehyde in 1×PBS for 1 hr. The fixed culture was centrifuged, and the pellet resuspended in 0.4% paraformaldehyde in 1×PBS and kept at 4° C.

Q: Which “concentration at which efficacy of rescue peaks” value ([1]; dose-response, FIG. 1B, above the peak growth slows) does the source give for `COc1cc(/C=N/Nc2nc(Nc3cccc(C(F)(F)F)c3)nc(N3CCOCC3)n2)ccc1O` [DES-2179] here?
A: around 10 μM

Q: And the “Cpy trafficking defect (block in vesicle trafficking)” value (Carboxypeptidase Y (CPY); FIG. 1C)?
A: ameliorate this defect

Q: And the “K63-linked ubiquitination of proteins” value ([2]; Nedd4-dependent manner, FIGS. 3A-3C)?
A: promote K63-linked ubiquitination of proteins

Q: And the “ratio of Sna3-GFP to free GFP” value (Sna3-GFP [3])?
A: lowest ratio

Q: And the “Sna3-GFP trafficking to the vacuole (in words)” value (shortened to “Sna3-GFP trafficking”) (Sna3-GFP [3])?
A: promotes Sna3-GFP trafficking to the vacuole

Q: `O=C(c1ccc(COc2ccc(OC(F)(F)F)cc2)o1)N1CCN(c2ccccc2)CC1` [DES-2184] was tested. Which “rescue of aSyn toxicity in yeast (in words)” value [1] did it give?
A: also effective

Q: `CCCCc1ccc2nc(-c3ccc(-c4cc(Cl)cc(Cl)c4)o3)cc(C(=O)O)c2c1` [DES-2817] was tested. Which “ratio of Sna3-GFP to free GFP” value (Sna3-GFP [3]) did it give?
A: lowest ratio

Q: And the “Sna3-GFP trafficking” value (Sna3-GFP [3])?
A: promote Sna3-GFP trafficking to the vacuole

Q: With `O=C(c1ccc(COc2ccc(OC(F)(F)F)cc2)o1)N1CCC(O)(c2ccc(Cl)cc2)CC1` [DES-2854] as the molecule, how does the “Sna3-GFP trafficking” value (Sna3-GFP [3]) read?
A: promote Sna3-GFP trafficking to the vacuole

Q: With `COc1cc(Cl)cc(/C=N/Nc2nc(Nc3ccc(C)c(Cl)c3)nc(N3CCOCC3)n2)c1O` [DES-2866] as the molecule, how does the “rescue of aSyn toxicity in yeast (in words)” value [1] read?
A: also effective

Q: What about the “ratio of Sna3-GFP to free GFP” value (Sna3-GFP [3]) of the same molecule?
A: highest ratio

Q: What does the source list for `COc1cc(Cl)cc(/C=N/Nc2nc(Nc3cc(C)ccc3C)nc(N3CCOCC3)n2)c1O` [DES-2877]?
A: Kd (Rsp5): 1700 ± 400 nM; rescue of aSyn toxicity in yeast (in words) [1]: most effective; polyubiquitinated Sna3-GFP (Sna3-GFP [4]): increase; accumulation of CPY trafficking intermediates en route to the vacuole (Carboxypeptidase Y (CPY); FIG. 11D): increase; morphology: vesicular intermediates in yeast cells [5]: accumulation of vesicular intermediates; K63 linkages in iPS derived human neurons ([2]; 5 μM for 12 hours, FIG. 13A): modest increase

Q: Which “ratio of Sna3-GFP to free GFP” value (Sna3-GFP [3]) does the source give for `O=C(c1ccc(COc2ccc3ccccc3c2)o1)N1CCN(c2ncccn2)CC1` [DES-2926] here?
A: greatest

Q: `Cc1ccc(C2CC(C(F)(F)F)n3nc(C(=O)N4CCN(c5ccccc5)CC4)cc3N2)cc1` (stereo not drawn) [DES-2960] was tested. Which “Sna3-GFP trafficking” value (Sna3-GFP [3]) did it give?
A: promotes Sna3-GFP trafficking to the vacuole better than DES-2866 and DES-2928

Q: Which “binding to Rsp5 (in words)” value (Rsp5) does the source give for `COc1cc(/C=N/Nc2nc(Nc3ccccc3)nc(N3CCOCC3)n2)ccc1OCC#N` [DES-3001] here?
A: did not show binding

Q: What about the “Sna3-GFP trafficking” value (Sna3-GFP [3]) of the same molecule?
A: promote Sna3-GFP trafficking to the vacuole

Q: For `O=C(Nc1cccc(Cl)c1)c1coc(CN2CCN(c3ccc(F)cc3)CC2)n1` [DES-3035], which “Sna3-GFP trafficking” value (Sna3-GFP [3]) is on record?
A: promote Sna3-GFP trafficking to the vacuole

Q: With `C(=N\Nc1nc(Nc2ccccc2)nc(N2CCOCC2)n1)/c1ccncc1` [DES-4117] as the molecule, how does the “binding to Rsp5 (in words)” value (Rsp5) read?
A: did not show binding

Q: `Cc1ccc(C)c(Nc2nc(N/N=C/c3ccncc3)nc(N3CCOCC3)n2)c1` [DES-5204] was tested. Which “Sna3-GFP trafficking” value (Sna3-GFP [3]) did it give?
A: promote Sna3-GFP trafficking to the vacuole

Q: With `C(=N\Nc1cc(N2CCOCC2)nc(Nc2ccccc2)n1)/c1ccncc1` [DES-5212] as the molecule, how does the Kd (Rsp5) read?
A: 680 ± 180 nM

Q: What about the “ratio of Sna3-GFP to free GFP” value (Sna3-GFP [3]) of the same molecule?
A: lowest

Q: What about the “Sna3-GFP trafficking” value (Sna3-GFP [3]) of the same molecule?
A: promote Sna3-GFP trafficking to the vacuole
